# According to PubChem BioAssay (NCI):
#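 Briefly, cells in 96-well plates were exposed to five compound concentrations for 48 h, and endpoints were estimated by linear interpolation. Abbreviation: GI50, concentration required for 50% inhibition of growth. TGI: total growth inhibition.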
# What was measured:
# Assay in all cases: inhibition of tumour cell growth, NCI panel, 48 h
# 786-0 renal = system: 786-0 renal
# A498 renal = system: A498 renal
# A549 NSCLC = system: A549 NSCLC
# ACHN renal = system: ACHN renal
# BT-549 breast = system: BT-549 breast
# CAKI-1 renal = system: CAKI-1 renal
# CCRF-CEM leukemia = system: CCRF-CEM leukemia
# COLO 205 colon = system: COLO 205 colon
# DU-145 prostate = system: DU-145 prostate
# EKVX NSCLC = system: EKVX NSCLC
# HCC-2998 colon = system: HCC-2998 colon
# HCT-116 colon = system: HCT-116 colon
# HCT-15 colon = system: HCT-15 colon
# HL-60(TB) leukemia = system: HL-60(TB) leukemia
# HOP-62 NSCLC = system: HOP-62 NSCLC
# HOP-92 NSCLC = system: HOP-92 NSCLC
# HS 578T breast = system: HS 578T breast
# HT29 colon = system: HT29 colon
# IGROV1 ovarian = system: IGROV1 ovarian
# K-562 leukemia = system: K-562 leukemia
# KM12 colon = system: KM12 colon
# LOX IMVI melanoma = system: LOX IMVI melanoma
# M14 melanoma = system: M14 melanoma
# MALME-3M melanoma = system: MALME-3M melanoma
# MCF7 breast = system: MCF7 breast
# MDA-MB-231 breast = system: MDA-MB-231 breast
# MDA-MB-435 = system: MDA-MB-435
# MOLT-4 leukemia = system: MOLT-4 leukemia
# NCI-H226 lung = system: NCI-H226 lung
# NCI-H23 lung = system: NCI-H23 lung
# NCI-H460 lung = system: NCI-H460 lung
# NCI-H522 lung = system: NCI-H522 lung
# NCI/ADR-RES ovarian = system: NCI/ADR-RES ovarian
# OVCAR-3 ovarian = system: OVCAR-3 ovarian
# OVCAR-4 ovarian = system: OVCAR-4 ovarian
# OVCAR-5 ovarian = system: OVCAR-5 ovarian
# OVCAR-8 ovarian = system: OVCAR-8 ovarian
# PC-3 prostate = system: PC-3 prostate
# RPMI-8226 leukemia = system: RPMI-8226 leukemia
# RXF 393 renal = system: RXF 393 renal
# SF-268 CNS = system: SF-268 CNS
# SF-295 CNS = system: SF-295 CNS
# SF-539 CNS = system: SF-539 CNS
# SK-MEL-2 melanoma = system: SK-MEL-2 melanoma
# SK-MEL-28 melanoma = system: SK-MEL-28 melanoma
# SK-MEL-5 melanoma = system: SK-MEL-5 melanoma
# SK-OV-3 ovarian = system: SK-OV-3 ovarian
# SN12C renal = system: SN12C renal
# SNB-19 CNS = system: SNB-19 CNS
# SNB-75 CNS = system: SNB-75 CNS
# SR leukemia = system: SR leukemia
# SW-620 colon = system: SW-620 colon
# T-47D breast = system: T-47D breast
# TK-10 renal = system: TK-10 renal
# U251 CNS = system: U251 CNS
# UACC-257 melanoma = system: UACC-257 melanoma
# UACC-62 melanoma = system: UACC-62 melanoma
# UO-31 renal = system: UO-31 renal
# MDA-N = system: MDA-N
compound,measurement,setting,value
CC([C@H]1CCC2C3CCC4C(=O)C(NC=O)=CC[C@]4(C)C3CC[C@@]21C)N(C)C (stereo partly drawn),GI50,786-0 renal,2.48 µM
same,TGI,786-0 renal,7.76 µM
same,GI50,A498 renal,3.83 µM
same,TGI,A498 renal,12.5 µM
same,GI50,A549 NSCLC,3.81 µM
same,TGI,A549 NSCLC,12.7 µM
same,GI50,ACHN renal,4.86 µM
same,TGI,ACHN renal,17.2 µM
same,GI50,BT-549 breast,3.94 µM
same,TGI,BT-549 breast,21.3 µM
same,GI50,CAKI-1 renal,3.79 µM
same,TGI,CAKI-1 renal,33.5 µM
same,GI50,CCRF-CEM leukemia,3.24 µM
same,TGI,CCRF-CEM leukemia,18.7 µM
same,GI50,COLO 205 colon,1.75 µM
same,TGI,COLO 205 colon,3.4 µM
same,GI50,DU-145 prostate,8.07 µM
same,TGI,DU-145 prostate,25.1 µM
same,GI50,EKVX NSCLC,3.01 µM
same,TGI,EKVX NSCLC,50.7 µM
same,GI50,HCC-2998 colon,4.09 µM
same,TGI,HCC-2998 colon,14.7 µM
same,GI50,HCT-116 colon,1.42 µM
same,TGI,HCT-116 colon,3.95 µM
same,GI50,HCT-15 colon,1.42 µM
same,TGI,HCT-15 colon,4.26 µM
same,GI50,HL-60(TB) leukemia,1.86 µM
same,TGI,HL-60(TB) leukemia,4.95 µM
same,GI50,HOP-62 NSCLC,2.01 µM
same,TGI,HOP-62 NSCLC,4.56 µM
same,GI50,HOP-92 NSCLC,4.64 µM
same,TGI,HOP-92 NSCLC,12.7 µM
same,GI50,HS 578T breast,4.6 µM
same,TGI,HS 578T breast,20.8 µM
same,GI50,HT29 colon,0.505 µM
same,TGI,HT29 colon,2.37 µM
same,GI50,IGROV1 ovarian,2.29 µM
same,GI50,K-562 leukemia,0.965 µM
same,TGI,K-562 leukemia,> 23.8 µM
same,GI50,KM12 colon,2.88 µM
same,TGI,KM12 colon,14.2 µM
same,GI50,LOX IMVI melanoma,1.78 µM
same,TGI,LOX IMVI melanoma,4.02 µM
same,GI50,M14 melanoma,2.08 µM
same,TGI,M14 melanoma,4.39 µM
same,GI50,MALME-3M melanoma,2.34 µM
same,TGI,MALME-3M melanoma,5.96 µM
same,GI50,MCF7 breast,2.43 µM
same,TGI,MCF7 breast,14.1 µM
same,GI50,MDA-MB-231 breast,2.36 µM
same,TGI,MDA-MB-231 breast,7.07 µM
same,GI50,MDA-MB-435,2.81 µM
same,TGI,MDA-MB-435,> 29.9 µM
same,GI50,MOLT-4 leukemia,2.55 µM
same,TGI,MOLT-4 leukemia,10.2 µM
same,GI50,NCI-H226 lung,4.72 µM
same,TGI,NCI-H226 lung,19.4 µM
same,GI50,NCI-H23 lung,4.42 µM
same,TGI,NCI-H23 lung,18.7 µM
same,GI50,NCI-H460 lung,2.15 µM
same,TGI,NCI-H460 lung,5.49 µM
same,GI50,NCI-H522 lung,8.2 µM
same,TGI,NCI-H522 lung,> 31.2 µM
same,GI50,NCI/ADR-RES ovarian,6.8 µM
same,TGI,NCI/ADR-RES ovarian,27.2 µM
same,GI50,OVCAR-3 ovarian,2.7 µM
same,TGI,OVCAR-3 ovarian,10.2 µM
same,GI50,OVCAR-4 ovarian,5.12 µM
same,TGI,OVCAR-4 ovarian,26.6 µM
same,GI50,OVCAR-5 ovarian,8.45 µM
same,TGI,OVCAR-5 ovarian,24.9 µM
same,GI50,OVCAR-8 ovarian,6.16 µM
same,TGI,OVCAR-8 ovarian,40.9 µM
same,GI50,PC-3 prostate,2.51 µM
same,TGI,PC-3 prostate,14.5 µM
same,GI50,RPMI-8226 leukemia,2.75 µM
same,TGI,RPMI-8226 leukemia,18 µM
same,GI50,RXF 393 renal,4.66 µM
same,TGI,RXF 393 renal,16.6 µM
same,GI50,SF-268 CNS,2.17 µM
same,TGI,SF-268 CNS,5.48 µM
same,GI50,SF-295 CNS,2.11 µM
same,TGI,SF-295 CNS,5.67 µM
same,GI50,SF-539 CNS,1.58 µM
same,TGI,SF-539 CNS,3.14 µM
same,GI50,SK-MEL-2 melanoma,7.7 µM
same,TGI,SK-MEL-2 melanoma,25.2 µM
same,GI50,SK-MEL-28 melanoma,1.86 µM
same,TGI,SK-MEL-28 melanoma,3.55 µM
same,GI50,SK-MEL-5 melanoma,1.54 µM
same,TGI,SK-MEL-5 melanoma,3.04 µM
same,GI50,SK-OV-3 ovarian,4.03 µM
same,TGI,SK-OV-3 ovarian,12.9 µM
same,GI50,SN12C renal,2.92 µM
same,TGI,SN12C renal,14.9 µM
same,GI50,SNB-19 CNS,8.39 µM
same,TGI,SNB-19 CNS,22.1 µM
same,GI50,SNB-75 CNS,3.66 µM
same,TGI,SNB-75 CNS,15.5 µM
same,GI50,SR leukemia,1.03 µM
same,TGI,SR leukemia,6.5 µM
same,GI50,SW-620 colon,2.13 µM
same,TGI,SW-620 colon,5.54 µM
same,GI50,T-47D breast,1.73 µM
same,TGI,T-47D breast,6.57 µM
same,GI50,TK-10 renal,9.71 µM
same,TGI,TK-10 renal,29.4 µM
same,GI50,U251 CNS,3.43 µM
same,TGI,U251 CNS,15.2 µM
same,GI50,UACC-257 melanoma,4.24 µM
same,TGI,UACC-257 melanoma,10.4 µM
same,GI50,UACC-62 melanoma,1.94 µM
same,TGI,UACC-62 melanoma,3.98 µM
same,GI50,UO-31 renal,1.98 µM
same,TGI,UO-31 renal,7.4 µM
CS(=O)(=O)c1nc(-c2cc3c(c(S(C)(=O)=O)n2)CCC3)cc2c1CCC2,TGI,786-0 renal,> 100 µM
same,TGI,A498 renal,> 100 µM
same,TGI,A549 NSCLC,> 100 µM
same,TGI,ACHN renal,> 100 µM
same,TGI,BT-549 breast,> 100 µM
same,TGI,CAKI-1 renal,> 100 µM
same,TGI,CCRF-CEM leukemia,> 100 µM
same,TGI,COLO 205 colon,> 100 µM
same,TGI,DU-145 prostate,> 100 µM
same,TGI,EKVX NSCLC,> 100 µM
same,TGI,HCC-2998 colon,> 100 µM
same,TGI,HCT-116 colon,> 100 µM
same,TGI,HCT-15 colon,> 100 µM
same,TGI,HL-60(TB) leukemia,> 100 µM
same,TGI,HOP-62 NSCLC,> 100 µM
same,TGI,HT29 colon,> 100 µM
same,TGI,IGROV1 ovarian,85.1 µM
same,TGI,K-562 leukemia,> 100 µM
same,TGI,KM12 colon,> 100 µM
same,TGI,LOX IMVI melanoma,> 100 µM
same,TGI,M14 melanoma,> 100 µM
same,TGI,MDA-MB-231 breast,> 100 µM
same,TGI,MDA-MB-435,> 100 µM
same,TGI,MDA-N,> 100 µM
same,TGI,MOLT-4 leukemia,> 100 µM
same,TGI,NCI-H226 lung,> 100 µM
same,TGI,NCI-H23 lung,> 100 µM
same,TGI,NCI-H460 lung,> 100 µM
same,TGI,NCI-H522 lung,> 100 µM
same,TGI,NCI/ADR-RES ovarian,> 100 µM
same,TGI,OVCAR-3 ovarian,> 100 µM
same,TGI,OVCAR-4 ovarian,> 100 µM
same,TGI,OVCAR-5 ovarian,> 100 µM
same,TGI,OVCAR-8 ovarian,> 100 µM
same,TGI,PC-3 prostate,> 100 µM
same,TGI,RPMI-8226 leukemia,> 100 µM
same,TGI,RXF 393 renal,> 100 µM
same,TGI,SF-268 CNS,> 100 µM
same,TGI,SF-295 CNS,> 100 µM
same,TGI,SF-539 CNS,> 100 µM
same,TGI,SK-MEL-2 melanoma,> 100 µM
same,TGI,SK-MEL-28 melanoma,> 100 µM
same,TGI,SK-MEL-5 melanoma,> 100 µM
same,TGI,SK-OV-3 ovarian,> 100 µM
same,TGI,SN12C renal,> 100 µM
same,TGI,SNB-19 CNS,> 100 µM
same,TGI,SNB-75 CNS,53.4 µM
same,TGI,SW-620 colon,> 100 µM
same,TGI,TK-10 renal,> 100 µM
same,TGI,U251 CNS,> 100 µM
same,TGI,UACC-257 melanoma,> 100 µM
same,TGI,UACC-62 melanoma,> 100 µM
same,TGI,UO-31 renal,> 100 µM
